Experiments:
[1] = biological target: Sigma non-opioid intracellular receptor 1 (Rattus norvegicus) (UniProt Q9R0C9); test: IC50 ratio; sigma 1 to sigma 2; details: Cavia porcellus
Sigma 2 receptor = test: Evaluated for the binding affinity towards sigma 2 receptor by displacing the radioligand [3H]DTG in guinea-pig brain cortex.; parameters: species or system Cavia porcellus
[2] = biological target: Sigma non-opioid intracellular receptor 1 (Rattus norvegicus, UniProt Q9R0C9); test: Evaluated for the binding affinity towards sigma 1 receptor by displacing the radioligand [3H]-SKF- 10047 in whole rat brain membrane.; assay type: cell membranes
Sigma non-opioid intracellular receptor 1, sequence (Q9R0C9 whole entry): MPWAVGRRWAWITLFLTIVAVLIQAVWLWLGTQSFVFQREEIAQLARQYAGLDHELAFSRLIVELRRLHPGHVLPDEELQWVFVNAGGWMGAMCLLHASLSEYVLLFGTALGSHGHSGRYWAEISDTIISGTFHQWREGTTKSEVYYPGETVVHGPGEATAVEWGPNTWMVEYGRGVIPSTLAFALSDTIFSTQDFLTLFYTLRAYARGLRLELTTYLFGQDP

[3] = biological target: Sigma non-opioid intracellular receptor 1 (Rattus norvegicus) (UniProt Q9R0C9); test: IC50 ratio; sigma 2 to sigma 1; details: Cavia porcellus

Sigma non-opioid intracellular receptor 1 (Rattus norvegicus), sequence (Q9R0C9 whole entry): as above

SMILES	Ratio [1]	IC50 (Sigma 2 receptor) [nM]	IC50 [2] [nM]	Ratio [3]
COc1ccc2c(c1)C(CCCCN1CCCC(C)(C)C1)CCC2 (centres undefined)	58	0.44	25.6	–
COc1cccc2c1CCCC2CCCN1CCCC(C)(C)C1 (racemic) [listing 1 of 2 here]	–	138	0.48	–
CC1(C)CCCN(CCCC2CCc3ccccc32)C1 (centres undefined)	1.5	4.5	6.9	0.6
CC1(C)CCCN(CCCCCC2CCCc3ccccc32)C1 (centres undefined)	> 100000	0.008	1520	–
COc1cccc2c1CCC2CCCCN1CCCC(C)(C)C1 (centres undefined)	2	4.6	9.3	0.5
CC1(C)CCCN(CCC2CCCc3ccccc32)C1 (centres undefined)	> 9090	1.1	> 10000	–
CC1(C)CCCN(CCCCC2CCCc3ccccc32)C1 (centres undefined)	–	5.5	0.69	8
COc1cccc2c1CCCC2CCCN1CCCC(C)(C)C1 (racemic) [listing 2 of 2 here]	–	–	–	287
COc1cccc2c1CCCC2CCCN1CCCC(C)(C)C1 (single isomer, unassigned; (+)) [listing 1 of 2 here]	–	–	–	1340
COc1cccc2c1CCCC2CCCN1CCCC(C)(C)C1 (stereo in doubt; (-)-22) [listing 1 of 2 here]	–	–	–	131
COc1ccc2c(c1)CCCC2CCCCN1CCCC(C)(C)C1 (centres undefined)	> 100000	0.016	2150	–
COc1cccc2c1CCCC2CCCN1CCCC(C)(C)C1 (single isomer, unassigned; (+)) [listing 2 of 2 here]	–	119	0.089	–
COc1ccc2c(c1)CCCC2CCCN1CCCC(C)(C)C1 (centres undefined)	> 114	88	> 10000	–
CC1(C)CCCN(CCCCC2=CCCc3ccccc32)C1	8590	1.1	9450	–
COc1cccc2c1CCCC2CCCCN1CCCC(C)(C)C1 (centres undefined)	8	129	978	–
COc1ccc2c(c1)C(CCCN1CCCC(C)(C)C1)CCC2 (centres undefined)	–	109	22	5
CC1(C)CCCN(CCCC2CCCc3c(O)cccc32)C1 (centres undefined)	–	100	41	2
COc1cccc2c1CCCC2CCCN1CCCC(C)(C)C1 (stereo in doubt; (-)-22) [listing 2 of 2 here]	–	111	0.85	–
CC1(C)CCCN(CCCC2=CCc3ccccc32)C1	1	1.09	0.99	1
CC1(C)CCCN(CCCC2CCCc3ccccc32)C1 (centres undefined)	2	135	252	0.5
COc1ccc2c(c1)CCCC2CCCCCN1CCCC(C)(C)C1 (centres undefined)	21	0.03	0.62	–
COc1ccc2c(c1)CCC2CCCN1CCCC(C)(C)C1 (centres undefined)	4610	1.01	4660	–
CC1(C)CCCN(CCCCCc2ccccc2)C1	583	10	5830	–

From ChEMBL document CHEMBL1131293, “N-[omega-(Tetralin-1-yl)alkyl] derivatives of 3,3-dimethylpiperidine are highly potent and selective sigma1 or sigma2 ligands” (J Med Chem, 1998)
